Our source for the Ki values is patent US7723355B2, “7,8-dihydro-1,6-naphthyridin-5(6H)-ones and related bicyclic compounds as inhibitors of dipeptidyl peptidase IV and methods” (Bristol-Myers Squibb Company, priority 2006, dated 2010).

As usually defined, the Ki is the equilibrium dissociation constant of an inhibitor or competing ligand from its target.

Counter-ions that a name gives are not always drawn. Some results are limits rather than exact numbers.

The target of this experiment is T1, human DPP-4 (Homo sapiens, UniProt P27487).
T1 construct: during isolation the entire transmembrane domain (including His tag) is removed by proteases present in the CHO cells; His tag (enterokinase-cleavable, from pcDNA4/HisMax) (N, cleaved yes); made in house
T1 sequence (P27487 29-766 limits assumed): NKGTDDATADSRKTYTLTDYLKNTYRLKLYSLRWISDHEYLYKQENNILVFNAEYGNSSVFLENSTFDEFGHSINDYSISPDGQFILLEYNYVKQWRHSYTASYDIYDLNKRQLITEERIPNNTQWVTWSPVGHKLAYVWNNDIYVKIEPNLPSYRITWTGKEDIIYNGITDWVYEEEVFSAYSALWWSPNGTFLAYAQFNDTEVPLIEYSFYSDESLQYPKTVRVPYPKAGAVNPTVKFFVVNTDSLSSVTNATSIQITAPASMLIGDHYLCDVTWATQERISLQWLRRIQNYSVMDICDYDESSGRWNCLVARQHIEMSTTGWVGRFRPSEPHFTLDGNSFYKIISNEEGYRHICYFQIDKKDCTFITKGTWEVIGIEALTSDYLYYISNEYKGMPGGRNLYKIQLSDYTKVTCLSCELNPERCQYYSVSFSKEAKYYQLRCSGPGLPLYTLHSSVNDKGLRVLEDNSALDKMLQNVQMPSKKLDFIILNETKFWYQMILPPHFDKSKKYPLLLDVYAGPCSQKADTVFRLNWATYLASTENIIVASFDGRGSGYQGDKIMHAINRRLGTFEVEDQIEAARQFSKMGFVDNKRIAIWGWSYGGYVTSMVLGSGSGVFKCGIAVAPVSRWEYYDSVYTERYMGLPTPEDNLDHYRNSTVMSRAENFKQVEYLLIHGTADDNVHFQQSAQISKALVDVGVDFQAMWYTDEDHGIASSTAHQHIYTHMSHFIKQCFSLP
Briefly: DPP-4 inhibition assay (cleavage of pseudosubstrate Gly-Pro-pNA, absorbance at 405 nm). The class given is biochemical. To be noted: recombinant human DPP-4, steady state, Gly-Pro-pNA 120 or 1000 μM, pH 7.4, 40 min preincubation; IC50 converted to Ki assuming competitive inhibition; read-out: DPP4 Ki. The procedure:
DPP-4 inhibitory activity of the compounds of the present invention may be determined by use of an in vitro assay system which measures the degree in inhibition of DPP-4-mediated cleavage of an appropriate substrate or pseudo-substrate. Inhibition constants (Ki values) for the DPP-4 inhibitors of the invention may be determined by the method described in the experimental section below.
To generate human DPP-4, PCR (Red-tag polymerase, Sigma) was performed on Human cDNA from placenta (Clontech) using two primers, […] (SEQ ID NO:1) and […] (SEQ ID NO:2), based on the nucleotide sequence of the human clone (accession number M74777). PCR products were cloned into the pcDN4/HisMax TOPO vector (Invitrogene). For stable transfection of CHO-DG44 cells, DPP4 was rePCRed using primers […] (SEQ ID NO:3) and […] (SEQ ID NO:4) to generate KpnI and XhoI sites. The KpnI and XhoI sites were used to extract the N-terminal His tagged gene. The His tag, which could be cleaved and removed by Enterokinase, was included to allow purification using the TALON affinity column. The gene was then ligated into the KpnI and XhoI sites of the pD16 vector for stable transfection. Stable cell lines were generated by transfecting the expression vector into Chinese hamster ovary (CHO-DG44) cells using electroporation. The CHO-DG44 cell line was grown in PFCHO media supplemented with HT (glycine, hypoxanthine and thymidine, Invitrogene), glutamine and Recombulin (ICN). Then 1×10^7 cells/ml were collected, transfected with 60 μg of DNA using electroporation at 300V, and then transferred to a T75 flask. On the third day following transfection, the HT supplement was removed and selection was initiated with methotrexate (MTX, 10 nM, ICN). After a further 10 days the cells were plated into individual wells of 96 well plates. Every 10 days the concentration of MTX was increased two to three fold, up to a maximum of 400 nM. Final stable cell line selection was based on yield and activity of the expressed protein.
An attempt to purify recombinant DPP-4 using Talon resin was not efficient, resulting in small yields, with most of the DPP activity passing through the column. Therefore, protein was further purified using conventional anion exchange (Sepharose Q), gel filtration (S-200) and high resolution MonoQ columns. The final protein yielded a single band on SDS-PAGE gels. Amino acid sequence analysis indicated two populations of DPP-4 in the sample. One portion of the protein had 27 amino acids truncated from the N-terminus, while the other was lacking the N-terminal 37 amino acids. […] Total protein concentration was measured using the Bradford dye method and the amount of the active DPP-4 was determined by titrating the enzyme with a previously characterized inhibitor (Ki=0.4 nM).
Inhibition of human DPP-4 activity was measured under steady-state conditions by following the absorbance increase at 405 nm upon the cleavage of the pseudosubstrate, Gly-Pro-pNA. Assays were performed in 96-well plates using a Thermomax plate reader. […] To ensure steady-state conditions for slow-binding inhibitors, enzyme was preincubated with the compound for 40 minutes prior to substrate addition, to initiate the reaction.
Inhibitor potency was evaluated by fitting inhibition data to the binding isotherm:
[formula] where vi is the initial reaction velocity at different concentrations of inhibitor I; v is the control velocity in the absence of inhibitor, range is the difference between the uninhibited velocity and background; background is the rate of spontaneous substrate hydrolysis in the absent of enzyme, n is the Hill coefficient.
Calculated IC50s at each substrate concentration were converted to Ki assuming competitive inhibition according to:
All inhibitors were competitive as judged by a very good agreement of Ki values obtained from the assays at high and low substrate concentrations. […]

For the molecule `Cc1nc2c(c(-c3ccc(Cl)cc3Cl)c1CN)C(=O)N(CC(=O)N(C)C)CC2` (single isomer, unassigned) [Example 2, TFA salt], the inhibition constant (Ki) was 2.01 nM.
On to `Cc1nc2c(c(-c3ccc(Cl)cc3Cl)c1CN)C(=O)N(CC(=O)N1CCOCC1)CC2` [Example 12, (S)-3-(Aminomethyl)-4-(2,4-dichlorophenyl)-2-methyl-6-(2-morpholino-2-oxoethyl)-7,8-dihydro-1,6-naphthyridin-5(6H)-one TFA salt], for which the inhibition constant (Ki) was 4.43 nM.
With `Cc1nc2c(c(-c3ccc(Cl)cc3Cl)c1CN)C(=O)NC(=O)C2` [Example 19, 3-(Aminomethyl)-4-(2,4-dichlorophenyl)-2-methyl-1,6-naphthyridine-5,7(6H,8H)-dione TFA Salt] the figure was 9.35 nM.
With `Cc1nc2c(c(-c3ccc(Cl)cc3Cl)c1CN)C(=O)N(CC(=O)N(C)C)CC2` (single isomer, unassigned) [Example 4, TFA salt] the figure was 39.7 nM; with `Cc1nc2c(c(-c3ccc(Cl)cc3Cl)c1CN)C(=O)N(C[C@@H]1CCCO1)CC2` [Example 14, 3-(Aminomethyl)-4-(2,4-dichlorophenyl)-2-methyl-6-(((S)-tetrahydrofuran-2-yl)methyl)-7,8-dihydro-1,6-naphthyridin-5(6H)-one TFA salt], 5.91 nM.
The same measure for `Cc1nc2c(c(-c3ccc(Cl)cc3Cl)c1CN)C(=O)N(CC(=O)N1CCCCC1)CC2` [Example 10, (S)-3-(Aminomethyl)-4-(2,4-dichlorophenyl)-2-methyl-6-(2-oxo-2-(piperidin-1-yl)ethyl)-7,8-dihydro-1,6-naphthyridin-5(6H)-one TFA salt]: 3.87 nM; for `COCCN1CCc2nc(C)c(CN)c(-c3ccc(Cl)cc3Cl)c2C1=O` [Example 15, 3-(Aminomethyl)-4-(2,4-dichlorophenyl)-6-(2-methoxyethyl)-2-methyl-7,8-dihydro-1,6-naphthyridin-5(6H)-one TFA salt]: 5.39 nM; for `Cc1nc2c(c(-c3ccc(Cl)cc3Cl)c1CN)C(=O)N(CC(=O)N1CCCC1)CC2` [Example 9, (S)-3-(Aminomethyl)-4-(2,4-dichlorophenyl)-2-methyl-6-(2-oxo-2-(pyrrolidin-1-yl)ethyl)-7,8-dihydro-1,6-naphthyridin-5(6H)-one TFA salt]: 3.5 nM.
Regarding `COc1ccccc1N1CCc2nc(C)c(CN)c(-c3ccc(Cl)cc3Cl)c2C1=O` [Example 18, 3-(Aminomethyl)-4-(2,4-dichlorophenyl)-6-(2-methoxyphenyl)-2-methyl-7,8-dihydro-1,6-naphthyridin-5(6H)-one TFA Salt], the inhibition constant (Ki) turned out to be 2.28 nM.
The same measure for `Cc1nc2c(c(-c3ccc(Cl)cc3Cl)c1CN)C(=O)N(c1ccccc1)CC2` [Example 17, 3-(Aminomethyl)-4-(2,4-dichlorophenyl)-2-methyl-6-phenyl-7,8-dihydro-1,6-naphthyridin-5(6H)-one TFA salt]: 5 nM; for `Cc1nc2c(c(-c3ccc(Cl)cc3Cl)c1CN)C(=O)N(CC(=O)N1CCC(N3CCCCC3=O)CC1)CC2` [Example 11, (S)-3-(Aminomethyl)-4-(2,4-dichlorophenyl)-2-methyl-6-(2-oxo-2-(2-oxo-1,4′-bipiperidin-1′-yl)ethyl)-7,8-dihydro-1,6-naphthyridin-5(6H)-one TFA salt]: 49.2 nM.
On to `Cc1nc2c(c(-c3ccccc3Cl)c1CN)C(=O)N(CC(=O)N(C)C)CC2` (single isomer, unassigned) [Example 3, TFA salt], for which the Ki worked out at 37.8 nM.
With `Cc1nc2c(c(-c3ccccc3Cl)c1CN)C(=O)N(CC(=O)N(C)C)CC2` (single isomer, unassigned) [Example 5, TFA Salt] the figure was above 100 nM.
With `Cc1nc2c(c(-c3ccc(Cl)cc3Cl)c1CN)C(=O)N(C)CC2` [Example 13, 3-(Aminomethyl)-4-(2,4-dichlorophenyl)-2,6-dimethyl-7,8-dihydro-1,6-naphthyridin-5(6H)-one TFA salt] the figure was 7.72 nM.
The same measure for `CCN(CC)C(=O)CN1CCc2nc(C)c(CN)c(-c3ccc(Cl)cc3Cl)c2C1=O` [Example 8, (S)-2-(3-(Aminomethyl)-4-(2,4-dichlorophenyl)-2-methyl-5-oxo-7,8-dihydro-1,6-naphthyridin-6(5H)-yl)-N,N-diethylacetamide TFA salt]: 3.82 nM; for `Cc1nc2c(c(-c3ccc(Cl)cc3Cl)c1CN)C(=O)NCC2` [Example 1, 3-(Aminomethyl)-4-(2,4-dichlorophenyl)-2-methyl-7,8-dihydro-1,6-naphthyridin-5(6H)-one HCl salt]: 6.9 nM.
Take `Cc1nc2c(c(-c3ccc(Cl)cc3Cl)c1CN)C(=O)N(CC(N)=O)CC2` [Example 6, (S)-2-(3-(Aminomethyl)-4-(2,4-dichlorophenyl)-2-methyl-5-oxo-7,8-dihydro-1,6-naphthyridin-6(5H)-yl)acetamide TFA salt]: the Ki was found to be 3.44 nM.
On to `Cc1nc2c(c(-c3ccc(Cl)cc3Cl)c1CN)C(=O)N(CCO)CC2` [Example 16, 3-(Aminomethyl)-4-(2,4-dichlorophenyl)-6-(2-hydroxyethyl)-2-methyl-7,8-dihydro-1,6-naphthyridin-5(6H)-one TFA salt], for which the inhibition constant Ki is 18 nM.
